Assay results published in US8410168B2, “Methods and compositions for treating ophthalmic conditions with retinyl derivatives” (Acucela, Inc., priority 2004, dated 2013).
pKd: −log10 of the molar value.

Columns and labels:
TTR binding to RBP = TTR binding to RBP (Homo sapiens, UniProt P02753); experiment: Size exclusion study of TTR binding to RBP; details: 10 μM RBP, 50 μM MPR, 10 μM TTR
Method: Apo-RBP at 10 μM was incubated with 50 μM of MPR in PBS at room temperature for 1 hour. 10 μM of TTR was then added to the solution, and the mixture was incubated for another hour at room temperature. […] of the sample mixtures with and without TTR addition were analyzed by BioRad Bio-Sil SEC 125 Gel Filtration Column (300×7.8 mm). In control experiments, atROL-RBP and atROL-RBP-TTR mixture were analyzed in the same manner.

CRALBP [1] = target: T1, CRALBP (Homo sapiens, UniProt P12271); experiment: Fluorescence quenching study of binding to CRALBP
T1 construct: made in house
T1 sequence (P12271 whole entry, species assumed): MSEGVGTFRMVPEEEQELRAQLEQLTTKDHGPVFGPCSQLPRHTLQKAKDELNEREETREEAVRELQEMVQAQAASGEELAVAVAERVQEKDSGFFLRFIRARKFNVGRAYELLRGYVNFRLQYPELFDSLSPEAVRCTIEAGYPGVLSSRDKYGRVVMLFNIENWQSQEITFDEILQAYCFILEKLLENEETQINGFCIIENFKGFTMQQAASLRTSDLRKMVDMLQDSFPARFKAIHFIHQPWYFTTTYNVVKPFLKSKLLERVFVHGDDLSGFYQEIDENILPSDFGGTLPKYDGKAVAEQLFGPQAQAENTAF
Method: Apo-CRALBP at 0.5 μM was incubated with 1 μM of 11-cis Retinal (11cRAL), all-trans retinal (atRAL) or N-4-hydroxyphenyl retinamide (HPR) in PBS at room temperature for 1 hour. As a control, same volume of DMSO was added to the Apo-CRABLP solution. The emission spectra were measured between 290 nm to 500 nm with excitation wavelength at 280 nm and 2 nm bandpass (See FIG. 7).
Quenching of CRALBP protein fluorescence with 11-cis retinal (11cRAL). The fluorescence emission of recombinant apo-CRALBP (0.5 μM) was measured using 280 nm excitation (“no 11cRAL”).
Quenching of CRALBP protein fluorescence with HPR. The data shown were obtained using an experimental design identical to that described above. The fluorescence emission of recombinant apo-CRALBP was measured using 280 nm excitation (“no HPR”).
We performed an analysis of the dissociation constant (KD) for 11cRAL and HPR binding to apo-CRALBP (see FIG. 15). […] This calculation is based upon the ligand concentration necessary to fully quench the protein fluorescence. The data reveal that both 11cRAL and HPR quench apo-CRALBP fluorescence maximally at ˜1.5 μM. Thus, although apo-CRALBP is described as an 11 cis-specific retinoid binding protein, it appears to bind HPR as well.

CRALBP [2] = target: T1, CRALBP; experiment: Size exclusion chromatography study of binding to CRALBP; details: 4 μM apo-CRALBP, 8 μM ligand
Method: Apo-CRALBP at 4 μM was incubated with 8 μM of 11cRAL, atRAL or HPR in PBS at room temperature for 1 hour. In control experiment, equivalent volume of DMSO was added to the CRALBP solution. 50 μl of each sample mixture was analyzed by BioRad Bio-Sil SEC125 Gel Filtration Column (300×7.8 mm).

apo-CRALBP = target: T2, apo-CRALBP (Homo sapiens, UniProt P12271); experiment: Ni+ affinity column and spectroscopic analysis of binding to CRALBP; details: 10 μM apo-CRALBP, 20 μM ligand
T2 construct: made in house
T2 sequence (P12271 whole entry, species assumed): as above
Method: In order to confirm data obtained during fluorescence analysis of HPR binding to CRALBP, a second analysis was performed using affinity chromatography and spectroscopic analysis. The recombinant apo-CRALBP was constructed with a histidine tag which is utilized to purify the protein on a Ni+ affinity column following expression cloning. Here, we utilized this feature of apo-CRALBP to specifically “trap” the protein and any protein-ligand species for spectroscopic analysis. Two binding mixtures were prepared containing apo-CRALBP (10 μM) and either 11cRAL (20 μM) or HPR (20 μM). In control experiments for the analysis of non-specific ligand binding onto the affinity matrix, we prepared two additional mixtures containing only 11cRAL (20 μM) or HPR (20 μM) in binding buffer. The binding mixtures were passed through separate Ni+ affinity columns and the columns were washed extensively to elute unbound protein and ligand. Following the addition of elution buffer, the eluted fractions were analyzed by spectroscopy. […] Instead, two absorption maxima are seen: one at 280 nm and a second at 360 nm, which is attributable to the absorption of HPR (see FIG. 14).

RBP = RBP (Homo sapiens, UniProt P02753); experiment: Fluorescence quenching study of MPR binding to RBP
Method: Apo-RBP at 0.5 μM was incubated with 0, 0.25, 0.5, 1 and 2 μM of MPR in PBS at room temperature for 1 hour, respectively. As controls, the same concentration of Apo-RBP was also incubated with 1 μM of HPR or 1 μM of atROL. All mixtures contained 0.2% Ethanol (v/v). The emission spectra were measured between 290 nm to 550 nm with excitation wavelength at 280 nm and 3 nm bandpass.

ABCA4−/− mice = experiment: HPR drug holiday after 28 days of treatment; format: in vivo, mouse; details: 28-day drug holiday
Method: HPR (10 mg/kg in DMSO) was administered to ABCA4−/− mice daily for a period of 28 days. Control ABCA4−/− mice received only DMSO for the same period. […] Importantly, the observed reductions in lipofuscin autofluorescence persist long after cessation of HPR therapy. HPR (10 mg/kg), or DMSO, administration was discontinued following 28 days of treatment and re-evaluated A2E and precursor levels after 2 weeks and after 4 weeks.
We examined eyecup extracts by HPLC and employed detection by absorbance and fluorimetry. Identity of the indicated peaks was confirmed by on-line spectral analysis and by co-elution with authentic standards. […] Further, the A2E and precursor (A2PE-H2 and A2PE) levels after a […] or 28-day drug holiday remained at or near the levels immediately following 28 days of treatment (i.e., ca. 50% reduction relative to control), although after the 28-day drug holiday, the amount of A2E and precursor (A2PE-H2 and A2PE) had increased by a few percentage points relative to the 12-day drug holiday levels. […] It is clear that peak fluorescence tracks with the abundance of A2E, A2PE and A2PE-H2.
This effect cannot be attributed to long-term reductions in serum retinol as serum retinol had returned to baseline 48 hours following the last HPR dose. […] Furthermore, HPR reduces serum retinol levels, which leads to a reduction in the level of retinol in the eyes of treated animals. Once the level of retinol has been reduced in the eye, there is a time lag in the subsequent increase in retinol levels in the eye. Alone or in combination, the production of A2E, A2PE and A2PE-H2 in the eye remains low despite the absence of HPR in the serum or the eye.

SMILES: CC1=C(/C=C/C(C)=C/C=C/C(C)=C/CO)C(C)(C)CCC1 [atROL, all-trans retinol]
- binding of ligand-RBP to TTR (TTR binding to RBP): binds to TTR

SMILES: CC1=C(/C=C/C(C)=C/C=C/C(C)=C/C=O)C(C)(C)CCC1 [11cRAL, 11-cis retinal]
- concentration of maximal quenching of apo-CRALBP fluorescence (CRALBP [1]): ~1.5 µM
- quenching of CRALBP fluorescence emission (CRALBP [1]; 0.5 μM apo-CRALBP, 1 μM ligand, 1 hour, vs DMSO): highest degree of quenching
- concentration dependence of CRALBP protein fluorescence quenching (CRALBP [1]; 0.5 μM recombinant apo-CRALBP, 280 nm excitation): concentration dependent manner
- pKd (CRALBP [1]; transformation of fluorescence quenching data, read-out: dissociation constant (KD) for binding to apo-CRALBP): ~7.52
- ligand bound to CRALBP (monomer elution peak absorbance) (CRALBP [2]): a majority of the CRALBP is bound with ligand
- binding to apo-CRALBP by absorption spectra of eluted fraction (apo-CRALBP): bound to CRALBP

SMILES: COc1ccc(NC(=O)\C=C(C)/C=C/C=C(C)\C=C\C2=C(C)CCCC2(C)C)cc1 (stereo in doubt) [MPR, N-(4-methoxyphenyl)retinamide]
- quenching of RBP fluorescence (RBP; 0.5 μM apo-RBP, 0-2 μM MPR): concentration-dependent quenching
- concentration at which quenching of RBP fluorescence saturated (RBP; 0.5 μM of RBP): 1 µM
- degree of RBP fluorescence quenching compared with other ligands (RBP; 1 μM controls): smaller than those by atROL and HPR
- binding of ligand-RBP to TTR (TTR binding to RBP): did not bind to TTR
- detection in the eyes after drug holiday (ABCA4−/− mice): unable to detect

SMILES: CC1=C(/C=C/C(C)=C/C=C/C(C)=C/C=O)C(C)(C)CCC1 [atRAL, all-trans retinal]
- ligand bound to CRALBP (monomer elution peak absorbance) (CRALBP [2]): Less than half of the atRAL is bound to CRALBP
